Earlier results on 25 compounds are cited in patent publication US20190214145A1, “Method and systems for creating and screening patient metabolite profile to diagnose current medical condition, diagnose current treatment state and recommend new treatment regimen” (priority 2018, published 2019).

The subject of the first series is submandibular gland. To be noted: rats, saliva from ducts of the submandibular gland.
As to `CCCCC/C=C\C/C=C\C/C=C\C/C=C\CCCC(=O)N[C@H](C)CO` [(R)-(+)-methanandamide], the “Ca 2+ concentration of saliva” value is given as “increase”, the “Other electrolytes of saliva” value was “no changes”, the Saliva flow rate result is given as “significant decrease” and the “Total protein content of saliva” value was “increase”. Consider `CCCn1c(C)c(C(=O)c2cccc3ccccc23)c2ccccc21` [JWH015], for which the “Ca 2+ concentration of saliva” value is reported as “increase”, the “Other electrolytes of saliva” value is “no changes”, the Saliva flow rate entry was “significant decrease” and the “Total protein content of saliva” value is “increase”. `Cc1c(C(=O)c2cccc3ccccc23)c2cccc3c2n1[C@H](CN1CCOCC1)CO3` [WIN55212-2T]: the “Ca 2+ concentration of saliva” value is “increase”, the “Other electrolytes of saliva” value is reported as “no changes”, the Saliva flow rate entry was “significant decrease” and the “Total protein content of saliva” value is “increase”.

Test system in a further series: not given
To be noted: intravenous, amount equivalent to one cannabis cigarette.
As to `CCCCCc1cc(O)c2c(c1)OC(C)(C)[C@@H]1CCC(C)=C[C@@H]21` [Δ9THC], the Heart rate entry is “significantly increases”, the “Phosphoenolpyruvate (PEP)” value is recorded as “decreases” and the “Systolic or diastolic arterial pressure” value is “without any change”.

Test system in a further series: not given
Conditions: vaporizing temperature.
For `CC12CCC(CC1)C(C)(C)O2` [1,8-cineole], the BP is 176 °C. Take `O=c1cc(-c2ccc(O)cc2)oc2cc(O)cc(O)c12` [Apigenin]: the BP was 178 °C.

Take `CC1(C)C2CCC1(C)C(O)C2` (centres unmarked) [Borneol]: the BP was 210 °C. Turning to `CCCCCc1cc2c(c(O)c1C(=O)O)C=CC(C)(CCC=C(C)C)O2` (centres unmarked) [CBCA], the BP was 145 °C.

Consider `CCCCCc1cc(O)c2c(c1)OC(C)(CCC=C(C)C)C=C2` (centres unmarked) [CBC], for which the BP is 220 °C. On to `C=C(C)[C@@H]1CCC(C)=C[C@H]1c1c(O)cc(CCCCC)cc1O` [CBD, reference compound], for which the BP was 180 °C. For the compound `C=C(C)[C@@H]1CCC(C)=C[C@H]1c1c(O)cc(CCCCC)c(C(=O)O)c1O` [CBDA], the BP was 120 °C. Regarding `COc1cc(-c2cc(=O)c3c(O)c(C/C=C(\C)CCC=C(C)C)c(O)cc3o2)ccc1O` [Cannflavin A], the BP is 182 °C. Consider `C=C(C)[C@H]1CC=C(C)CC1` [D-limonene], for which the BP was 177 °C.

For `C=CC(C)(O)CCC=C(C)C` (centres unmarked) [Linalool], the BP is 198 °C. Consider `Cc1ccc(C(C)C)cc1` [P-cymene], for which the BP is 177 °C. On to `CC(C)=C1CC[C@@H](C)CC1=O` [Pulegone], for which the BP was 224 °C.

`CC1=CCC(O)(C(C)C)CC1` (centres unmarked) [Terpinol-4-ol]: the BP is 209 °C. For `CCCCCc1cc2c(c(O)c1C(=O)O)[C@@H]1C=C(C)CC[C@H]1C(C)(C)O2` [Δ9THCA], the BP was 104 °C. As for `CCCCCc1cc(O)c2c(c1)OC(C)(C)[C@@H]1CCC(C)=C[C@@H]21` [Δ9THC], the BP was 157 °C.

As to `CC1=CCC2C(C1)C2(C)C` (centres unmarked) [Δ-3-carene], the BP is 168 °C. In the case of `CC1=CCC(C(C)(C)O)CC1` (stereo not drawn) [α-terpineol], the BP is 217 °C. `CC1=CC[C@@H](C(C)(C)O)CC1` [α-terpinol]: the BP is 156 °C.

As for `C=C1CC/C=C(\C)CC[C@@H]2[C@@H]1CC2(C)C` [β-caryophyllene], the BP was 199 °C.

Turning to `C=CC(=C)CCC=C(C)C` [β-myrcene], the BP was 167 °C. Consider `CC[C@H](CC[C@@H](C)[C@H]1CC[C@H]2[C@@H]3CC=C4C[C@@H](O)CC[C@]4(C)[C@H]3CC[C@]12C)C(C)C` [β-sitosterol], for which the BP was 134 °C.

Test system in another series: not given
To be noted: upon inhalation, even in low concentrations.
For the compound `CC(C)=CCCC(C)CCO` (centres unmarked) [Citronellol], the Sedation result is on record as “deeply sedating”. Turning to `CC1=CCC(C(C)(C)O)CC1` (stereo not drawn) [α-terpineol], the Sedation entry is given as “deeply sedating”.
